{"source": "ChEMBL document CHEMBL1255461", "about": "“KPC-producing extreme drug-resistant Klebsiella pneumoniae isolate from a patient with diabetes mellitus and chronic renal failure on hemodialysis in South Korea” (2010)", "tested_on": "Klebsiella pneumoniae", "experiment": "Antimicrobial activity against multidrug-resistant Klebsiella pneumoniae isolate Kpn-DK2 by broth microdilution method", "format": "functional"}
{"compound": "COLISTIN", "values": [{"measurement": "MIC", "result": "> 64", "unit": "µg/mL"}]}
{"compound": "CCN1CCN(C(=O)N[C@@H](C(=O)N[C@@H]2C(=O)N3[C@@H]2SC(C)(C)[C@@H]3C(=O)O)c2ccccc2)C(=O)C1=O", "note": "[PIPERACILLIN]", "values": [{"measurement": "MIC", "result": "> 256", "unit": "µg/mL"}]}
{"compound": "POLYMYXIN B", "values": [{"measurement": "MIC", "result": "> 64", "unit": "µg/mL"}]}
{"compound": "CC1(C)[C@H](C(=O)O)N2C(=O)C[C@H]2S1(=O)=O", "note": "[SULBACTAM]", "values": [{"measurement": "MIC", "result": 32, "unit": "µg/mL"}]}
{"compound": "CO/N=C(\\C(=O)N[C@@H]1C(=O)N2C(C(=O)O)=C(COC(C)=O)CS[C@H]12)c1csc(N)n1", "note": "[CEFOTAXIME]", "values": [{"measurement": "MIC", "result": "> 128", "unit": "µg/mL"}]}
{"compound": "Nc1nc(/C(=N/O)C(=O)N[C@@H]2C(=O)N3C(C(=O)O)=C(/C=C4\\CCN([C@@H]5CCNC5)C4=O)CS[C@H]23)ns1", "note": "[CEFTOBIPROLE]", "values": [{"measurement": "MIC", "result": "> 32", "unit": "µg/mL"}]}
{"compound": "C[C@@H](O)[C@H]1C(=O)N2C(C(=O)O)=C(S[C@@H]3CN[C@H](CNS(N)(=O)=O)C3)[C@H](C)[C@H]12", "note": "[DORIPENEM]", "values": [{"measurement": "MIC", "result": 16, "unit": "µg/mL"}]}
{"compound": "CC1(C)S[C@@H]2[C@H](NC(=O)[C@H](N)c3ccccc3)C(=O)N2[C@H]1C(=O)O", "note": "[AMPICILLIN]", "values": [{"measurement": "MIC", "result": "> 64", "unit": "µg/mL"}]}
{"compound": "CC(C)(O/N=C(\\C(=O)N[C@@H]1C(=O)N2C(C(=O)[O-])=C(C[n+]3ccccc3)CS[C@H]12)c1csc(N)n1)C(=O)O", "note": "[CEFTAZIDIME]", "values": [{"measurement": "MIC", "result": "> 64", "unit": "µg/mL"}]}
{"compound": "CCN1CCN(C(=O)N[C@@H](C(=O)N[C@@H]2C(=O)N3C(C(=O)O)=C(CSc4nnnn4C)CS[C@H]23)c2ccc(O)cc2)C(=O)C1=O", "note": "[CEFOPERAZONE]", "values": [{"measurement": "MIC", "result": "> 64", "unit": "µg/mL"}]}
{"compound": "CN(C)c1cc(NC(=O)CNC(C)(C)C)c(O)c2c1C[C@H]1C[C@H]3[C@H](N(C)C)C(O)=C(C(N)=O)C(=O)[C@@]3(O)C(O)=C1C2=O", "note": "[TIGECYCLINE]", "values": [{"measurement": "MIC", "result": 4, "unit": "µg/mL"}]}
{"compound": "C[C@H]1[C@H](NC(=O)/C(=N\\OC(C)(C)C(=O)O)c2csc(N)n2)C(=O)N1S(=O)(=O)O", "note": "[AZTREONAM]", "values": [{"measurement": "MIC", "result": "> 64", "unit": "µg/mL"}]}
{"compound": "CO/N=C(\\C(=O)N[C@@H]1C(=O)N2C(C(=O)[O-])=C(C[N+]3(C)CCCC3)CS[C@H]12)c1csc(N)n1", "values": [{"measurement": "MIC", "result": "> 64", "unit": "µg/mL"}]}
{"compound": "GENTAMICIN", "values": [{"measurement": "MIC", "result": "> 64", "unit": "µg/mL"}]}
{"compound": "COc1cc(Cc2cnc(N)nc2N)cc(OC)c1OC", "note": "[TRIMETHOPRIM]", "values": [{"measurement": "MIC", "result": "> 32", "unit": "µg/mL"}]}
{"compound": "C[C@]1(Cn2ccnn2)[C@H](C(=O)O)N2C(=O)C[C@H]2S1(=O)=O", "note": "[TAZOBACTAM]", "values": [{"measurement": "MIC", "result": 4, "unit": "µg/mL"}]}
{"compound": "C[C@@H](O)[C@H]1C(=O)N2C(C(=O)O)=C(SCCNC=N)C[C@H]12", "note": "[IMIPENEM ANHYDROUS]", "values": [{"measurement": "MIC", "result": 32, "unit": "µg/mL"}]}
